Measurements from PubChem BioAssay (NCI).
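At the GI50, growth is halved. TGI marks complete inhibition of growth.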

Experiments:
Experiment in all cases: NCI tumour cell line growth inhibition, 384-well format
786-0 renal = test system: 786-0 renal
A498 renal = test system: A498 renal
A549 NSCLC = test system: A549 NSCLC
ACHN renal = test system: ACHN renal
BT-549 breast = test system: BT-549 breast
CAKI-1 renal = test system: CAKI-1 renal
CCRF-CEM leukemia = test system: CCRF-CEM leukemia
COLO 205 colon = test system: COLO 205 colon
DU-145 prostate = test system: DU-145 prostate
EKVX NSCLC = test system: EKVX NSCLC
HCC-2998 colon = test system: HCC-2998 colon
HCT-116 colon = test system: HCT-116 colon
HCT-15 colon = test system: HCT-15 colon
HL-60(TB) leukemia = test system: HL-60(TB) leukemia
HOP-62 NSCLC = test system: HOP-62 NSCLC
HOP-92 NSCLC = test system: HOP-92 NSCLC
HS 578T breast = test system: HS 578T breast
HT29 colon = test system: HT29 colon
IGROV1 ovarian = test system: IGROV1 ovarian
K-562 leukemia = test system: K-562 leukemia
KM12 colon = test system: KM12 colon
LOX IMVI melanoma = test system: LOX IMVI melanoma
M14 melanoma = test system: M14 melanoma
MALME-3M melanoma = test system: MALME-3M melanoma
MCF7 breast = test system: MCF7 breast
MDA-MB-231 breast = test system: MDA-MB-231 breast
MDA-MB-435 melanoma = test system: MDA-MB-435 melanoma
MDA-MB-468 breast = test system: MDA-MB-468 breast
MOLT-4 leukemia = test system: MOLT-4 leukemia
NCI-H226 lung = test system: NCI-H226 lung
NCI-H23 lung = test system: NCI-H23 lung
NCI-H322M lung = test system: NCI-H322M lung
NCI-H460 NSCLC = test system: NCI-H460 NSCLC
NCI/ADR-RES ovarian = test system: NCI/ADR-RES ovarian
OVCAR-3 ovarian = test system: OVCAR-3 ovarian
OVCAR-4 ovarian = test system: OVCAR-4 ovarian
OVCAR-5 ovarian = test system: OVCAR-5 ovarian
OVCAR-8 ovarian = test system: OVCAR-8 ovarian
PC-3 prostate = test system: PC-3 prostate
RPMI-8226 leukemia = test system: RPMI-8226 leukemia
RXF 393 renal = test system: RXF 393 renal
SF-268 CNS = test system: SF-268 CNS
SF-295 CNS = test system: SF-295 CNS
SF-539 CNS = test system: SF-539 CNS
SK-MEL-2 melanoma = test system: SK-MEL-2 melanoma
SK-MEL-28 melanoma = test system: SK-MEL-28 melanoma
SK-MEL-5 melanoma = test system: SK-MEL-5 melanoma
SK-OV-3 ovarian = test system: SK-OV-3 ovarian
SN12C renal = test system: SN12C renal
SNB-19 CNS = test system: SNB-19 CNS
SNB-75 CNS = test system: SNB-75 CNS
SW-620 colon = test system: SW-620 colon
T-47D breast = test system: T-47D breast
TK-10 renal = test system: TK-10 renal
U251 glioblastoma = test system: U251 glioblastoma
UACC-257 melanoma = test system: UACC-257 melanoma
UACC-62 melanoma = test system: UACC-62 melanoma
UO-31 renal = test system: UO-31 renal

`CC(C)c1cnc(-c2cc(Cl)ccc2F)cc1Nc1ccncc1C(=O)NC(CO)CO` was tested, and the GI50 ([…]-0 renal) was 9.73 µM, the TGI (786-0 renal) was 21.5 µM and the GI50 (A498 renal) was 2.33 µM. For the same compound, the TGI (A498 renal) was 16.1 µM, the GI50 (A549 NSCLC) was 2.22 µM and the TGI (A549 NSCLC) was 15 µM. For the same compound, the GI50 (ACHN renal) was 2.34 µM, the TGI (ACHN renal) was 15.3 µM and the GI50 (BT-549 breast) was 0.383 µM. For the same compound, the TGI (BT-549 breast) was 3.2 µM, the GI50 (CAKI-1 renal) was 10.4 µM and the TGI (CAKI-1 renal) was 22.1 µM. For the same compound, the GI50 (CCRF-CEM leukemia) was 5.22 µM, the TGI (CCRF-CEM leukemia) was 17.1 µM and the GI50 (COLO 205 colon) was 2.56 µM. It also gave a TGI (COLO 205 colon) of 14 µM, a GI50 (DU-145 prostate) of 11.5 µM and a TGI (DU-145 prostate) of 23.7 µM. The GI50 (EKVX NSCLC) was 2.57 µM, the TGI (EKVX NSCLC) was 16.8 µM and the GI50 (HCC-2998 colon) was 15.9 µM. For the same compound, the TGI (HCC-2998 colon) was 29.4 µM, the GI50 (HCT-116 colon) was 10.7 µM and the TGI (HCT-116 colon) was 22.6 µM. For the same compound, the GI50 (HCT-15 colon) was 12.7 µM, the TGI (HCT-15 colon) was 25.3 µM and the GI50 (HL-60(TB) leukemia) was 0.263 µM. For the same compound, the TGI (HL-60(TB) leukemia) was 1.57 µM, the GI50 (HOP-62 NSCLC) was 10.6 µM and the TGI (HOP-62 NSCLC) was 22.4 µM. The GI50 (HOP-92 NSCLC) was 6.81 µM, the TGI (HOP-92 NSCLC) was 19.8 µM and the GI50 (HS 578T breast) was 10.5 µM. For the same compound, the TGI (HS 578T breast) was 22.3 µM, the GI50 (HT29 colon) was 13.3 µM and the TGI (HT29 colon) was 26.1 µM. The GI50 (IGROV1 ovarian) was 13.2 µM, the TGI (IGROV1 ovarian) was 26 µM and the GI50 (K-562 leukemia) was 7.06 µM. For the same compound, the TGI (K-562 leukemia) was 19.5 µM, the GI50 (KM12 colon) was 2.76 µM and the TGI (KM12 colon) was 15.9 µM. The GI50 (LOX IMVI melanoma) was 1.1 µM, the TGI (LOX IMVI melanoma) was 2.82 µM and the GI50 (M14 melanoma) was 4.27 µM. The TGI (M14 melanoma) was 19 µM, the GI50 (MALME-3M melanoma) was 2.14 µM and the TGI (MALME-3M melanoma) was 11.2 µM. The GI50 (MCF7 breast) was 0.124 µM, the TGI (MCF7 breast) was 5.16 µM and the GI50 (MDA-MB-231 breast) was 0.964 µM. The TGI (MDA-MB-231 breast) was 14.5 µM, the GI50 (MDA-MB-435 melanoma) was 9.98 µM and the TGI (MDA-MB-435 melanoma) was 21.6 µM. It also gave a GI50 (MDA-MB-468 breast) of 4.51 µM, a TGI (MDA-MB-468 breast) of 15.1 µM and a GI50 (MOLT-4 leukemia) of 5.48 µM. For the same compound, the TGI (MOLT-4 leukemia) was 17.7 µM, the GI50 (NCI-H226 lung) was 1.2 µM and the TGI (NCI-H226 lung) was 12.2 µM. It also gave a GI50 (NCI-H23 lung) of 0.892 µM, a TGI (NCI-H23 lung) of 9.05 µM and a GI50 (NCI-H322M lung) of 2.01 µM. It also gave a TGI (NCI-H322M lung) of 15.6 µM, a GI50 (NCI-H460 NSCLC) of 12.3 µM and a TGI (NCI-H460 NSCLC) of 24.8 µM. It also gave a GI50 (NCI/ADR-RES ovarian) of 10.8 µM, a TGI (NCI/ADR-RES ovarian) of 22.9 µM and a GI50 (OVCAR-3 ovarian) of 12.8 µM. For the same compound, the TGI (OVCAR-3 ovarian) was 25.5 µM, the GI50 (OVCAR-4 ovarian) was 0.581 µM and the TGI (OVCAR-4 ovarian) was 2.65 µM. The GI50 (OVCAR-5 ovarian) was 14.1 µM, the TGI (OVCAR-5 ovarian) was 27.1 µM and the GI50 (OVCAR-8 ovarian) was 1.57 µM. For the same compound, the TGI (OVCAR-8 ovarian) was 5.09 µM, the GI50 (PC-3 prostate) was 2.22 µM and the TGI (PC-3 prostate) was 11.7 µM. The GI50 (RPMI-8226 leukemia) was 0.172 µM, the TGI (RPMI-8226 leukemia) was 2 µM and the GI50 (RXF 393 renal) was 1.36 µM. The TGI (RXF 393 renal) was 9.34 µM, the GI50 (SF-268 CNS) was 3.8 µM and the TGI (SF-268 CNS) was 17.6 µM. The GI50 (SF-295 CNS) was 5.02 µM, the TGI (SF-295 CNS) was 17.7 µM and the GI50 (SF-539 CNS) was 1.16 µM. It also gave a TGI (SF-539 CNS) of 11.6 µM, a GI50 (SK-MEL-2 melanoma) of 20.5 µM and a TGI (SK-MEL-2 melanoma) of 34.8 µM. For the same compound, the GI50 (SK-MEL-28 melanoma) was 7.17 µM, the TGI (SK-MEL-28 melanoma) was 20.5 µM and the GI50 (SK-MEL-5 melanoma) was 11.6 µM. It also gave a TGI (SK-MEL-5 melanoma) of 23.8 µM, a GI50 (SK-OV-3 ovarian) of 0.832 µM and a TGI (SK-OV-3 ovarian) of 14.2 µM. It also gave a GI50 (SN12C renal) of 11.4 µM, a TGI (SN12C renal) of 23.6 µM and a GI50 (SNB-19 CNS) of 13.1 µM. It also gave a TGI (SNB-19 CNS) of 25.9 µM, a GI50 (SNB-75 CNS) of 12.1 µM and a TGI (SNB-75 CNS) of 24.5 µM. For the same compound, the GI50 (SW-620 colon) was 5.89 µM, the TGI (SW-620 colon) was 19.5 µM and the GI50 (T-47D breast) was 3.81 µM. For the same compound, the TGI (T-47D breast) was 17.2 µM, the GI50 (TK-10 renal) was 10.3 µM and the TGI (TK-10 renal) was 22.1 µM. For the same compound, the GI50 (U251 glioblastoma) was 13.7 µM, the TGI (U251 glioblastoma) was 26.6 µM and the GI50 (UACC-257 melanoma) was 12.5 µM. The TGI (UACC-257 melanoma) was 25.1 µM, the GI50 (UACC-62 melanoma) was 0.852 µM and the TGI (UACC-62 melanoma) was 18.2 µM. It also gave a GI50 (UO-31 renal) of 12.7 µM and a TGI (UO-31 renal) of 25.4 µM.
Compound `CCCCCOC(=O)Nc1nc(=O)n(C2OC(C)C(O)C2O)cc1F` (stereo not drawn) has a GI50 (RPMI-8226 leukemia) of over 46.9 µM and a TGI (RPMI-8226 leukemia) of 99.8 µM.
